Assay results from publication PMC4884984, “Identification of approved and investigational drugs that inhibit hypoxia-inducible factor-1 signaling” (Oncotarget, 2016).
Like-named read-outs stand apart in the source and are kept apart here. *1 amine or outer side, *2 acyl side, *3 side chain or, on linkers, in order; H or OH if unused. Where a SMILES comes first, the peptide text is derived from it. Bridges are numbered along the chain shown (N, C = ends). Roman numbers before positions name the chains, in order. [ ]: non-standard residue; d: D form. Actinocin(9to1) = Cc1c2oc3c(C)ccc(C(=O)[*:1])c3nc-2c(C(=O)[*:2])c(N)c1=O; NMeV = CN[C@H](C(=O)O)C(C)C; Sar = CNCC(=O)O

Columns and labels:
Assay type in all cases: cell-based, human
[1] = test system: HRE–bla ME-180 cells; experiment: Viability (BLA): CellTiter-Glo counter screen in HRE–bla cells; details: for IC50 / Emax: Table S7, confirmatory screen; for IC50: 1% O2, 18 h; for Viability (BLA) confirmatory IC50: Table S7, 1% O2, 18 h; for Emax: read-out: Viability (BLA) confirmatory Efficacy
Method: (§1) Cell culture of HRE–bla ME-180 cells (Cat. No. K1644, Life Technologies) and HRE–bla assay were conducted according to a reported protocol [6]. […] The fluorescence signals (460/25 nm and 530/20 nm) of CCF4 and luminescence signals of CellTiter-Glo were acquired on an Envision and a ViewLux plate readers (Perkin Elmer), respectively.

[2] = test system: HIF-1α–NanoLuc HCT116 cells; experiment: Viability (Luc): CellTiter-Glo counter screen in HIF-1α–NanoLuc cells; details: for Viability (Luc) confirmatory IC50: Table S7, 1% O2, 18 h; for IC50: Homo sapiens, HCT-116, Table S7, confirmatory screen, 1% O2, 18 h
[3] = test system: HIF-1α–NanoLuc; experiment: HIF-1α–NanoLuc reporter gene assay (qHTS primary and confirmatory screens)
[4] = test system: hypoxia response element-beta-lactamase (HRE–bla); experiment: HRE-bla reporter gene assay in ME-180 cells; details: Table S7, confirmatory screen; for Emax: read-out: HRE–bla confirmatory Efficacy; for IC50: read-out: HRE–bla confirmatory IC50
Method: as §1

[5] = Homo sapiens, 18 h, read-out: IC50 (primary screen, HIF-1α–NanoLuc assay)
[6] = Homo sapiens, read-out: Efficacy (primary screen, HIF-1α–NanoLuc assay)
[7] = Homo sapiens, read-out: HIF-1α–NanoLuc confirmatory Efficacy
[8] = Homo sapiens, read-out: HIF-1α–NanoLuc confirmatory IC50
[9] = Homo sapiens, read-out: HIF-1α–NanoLuc primary Efficacy
[10] = Homo sapiens, Table S7, confirmatory screen, read-out: HIF-1α–NanoLuc confirmatory Efficacy
[11] = Homo sapiens, Table S7, confirmatory screen, read-out: HIF-1α–NanoLuc confirmatory IC50
[12] = Homo sapiens, Table S7, primary screen, read-out: HIF-1α–NanoLuc primary Efficacy
[13] = Homo sapiens, Table S7, primary screen, read-out: HIF-1α–NanoLuc primary IC50
[14] = Homo sapiens, Table S2, primary screen, read-out: Pathway inhibitors (primary screen) HIF-1α–NanoLuc Activity Efficacy
[15] = Homo sapiens, Table S2, primary screen, read-out: Pathway inhibitors (primary screen) HIF-1α–NanoLuc Activity IC50
[16] = Homo sapiens, Table S2, validation, read-out: Pathway inhibitors (validation) HIF-1α–NanoLuc Activity Efficacy
[17] = Homo sapiens, Table S2, validation, read-out: Pathway inhibitors (validation) HIF-1α–NanoLuc Activity IC50
[18] = Homo sapiens, Table S1, primary screen, hypoxia 1% O2, 18 h, read-out: IC50 (primary screen, HIF-1α–NanoLuc assay)
[19] = Homo sapiens, Table S1, primary screen, read-out: Efficacy (primary screen, HIF-1α–NanoLuc assay)

Structure (SMILES) | IC50 ([1]; Homo sapiens, ME-180) [µM] | Viability (Luc) confirmatory IC50 [2] | Emax ([4]; Homo sapiens, ME-180) [%] | IC50 ([4]; Homo sapiens, ME-180) [µM] | Emax [3, 10] [%] | IC50 [3, 11] [µM] | Emax [3, 12] [%] | IC50 [3, 13] [µM] | Viability (BLA) confirmatory IC50 [1] | other results
Cc1c2oc3c(C)ccc(C(=O)N[C@@H]4C(=O)N[C@H](C(C)C)C(=O)N5CCC[C@H]5C(=O)N(C)CC(=O)N(C)[C@@H](C(C)C)C(=O)O[C@@H]4C)c3nc-2c(C(=O)N[C@@H]2C(=O)N[C@H](C(C)C)C(=O)N3CCC[C@H]3C(=O)N(C)CC(=O)N(C)[C@@H](C(C)C)C(=O)O[C@@H]2C)c(N)c1=O [Actinomycin D] (I: T[dV]P[Sar][NMeV] / II: T[dV]P[Sar][NMeV]; ester I:1-I:C, II:1-II:C; linker I:N-II:N via Actinocin(9to1)) | 1.52 ± 2.33 | Inactive | 78 ± 5 | 0.02 | – | – | – | – | – | Effect on HIF-1α–NanoLuc level / luciferase activity, in words [3]: caused reduced NanoLuc activity; IC50 [3, 5]: 0.04 µM; Emax [3, 6]: 99%; Emax [3, 7]: 87 ± 4%; IC50 [3, 8]: 0.03 ± 0.01 µM; Emax [3, 9]: 99%
CCCCC(CC)CNC(=N)NC(=N)NCCCCCCNC(=N)NC(=N)NCC(CC)CCCC (centres unmarked) [Alexidine] | 8.83 ± 1.59 | – | 87 ± 18 | 8.78 ± 1.12 | 107 ± 2 | 9.35 | 126 | 10.6 | – | IC50 [2]: 18.9 ± 3.53 µM
Cn1cnc([N+](=O)[O-])c1Sc1ncnc2nc[nH]c12 [Azathioprine] | – | – | – | – | 50 ± 11 | 8.07 ± 1.82 | 67 | 3.42 | Inactive | IC50 [2]: 2.11 ± 0.53 µM; HRE–bla confirmatory IC50 [4]: Inactive
CC(=O)Oc1ccc(C(c2ccc(OC(C)=O)cc2)c2ccccn2)cc1 [Bisacodyl] | 0.69 ± 0.05 | Inactive | 93 ± 4 | 0.84 ± 0.1 | 26 ± 6 | 3.91 ± 0.7 | 110 | 0.84 | – | –
C=CC(=O)Nc1cc2c(Nc3ccc(F)c(Cl)c3)ncnc2cc1OCCCN1CCOCC1 [Canertinib] | 21.2 ± 2.44 | Inactive | 37 ± 22 | 4.67 ± 7.5 | 88 ± 20 | 28.8 ± 10.7 | 50 | – | – | Emax [3, 14]: 50%; IC50 [3, 15]: 2.37 µM; Emax [3, 16]: 88 ± 20%; IC50 [3, 17]: 24.8 ± 10.7 µM
O=C(Nc1ccc(Cl)cc1)Nc1ccc(Cl)c(C(F)(F)F)c1 [Cloflucarban] | 22.9 ± 3.16 | Inactive | 98 ± 1 | 6.8 ± 1.55 | 98 ± 4 | 14.3 ± 0.93 | 66 | 7.5 | – | –
C[C@@H]1C[C@@H]([C@H](O)CC2CC(=O)NC(=O)C2)C(=O)[C@@H](C)C1 [Cycloheximide] | 8.34 ± 4.61 | Inactive | 92 ± 2 | 1.06 ± 0.12 | – | – | – | – | – | Effect on HIF-1α–NanoLuc level / luciferase activity, in words [3]: showed reduced protein turnover and decreased luciferase signal; IC50 [3, 5]: 0.24 µM; Emax [3, 6]: 92%; Emax [3, 7]: 104 ± 5%; IC50 [3, 8]: 0.53 µM; Emax [3, 9]: 92%
CC(C)(C)c1nc(-c2cccc(NS(=O)(=O)c3c(F)cccc3F)c2F)c(-c2ccnc(N)n2)s1 [Dabrafenib] | – | Inactive | 43 ± 1 | 6.4 ± 1.55 | 26 ± 13 | – | – | – | Inactive | Emax [3, 16]: 26 ± 13%; IC50 [3, 17]: 0.47 ± 0.24 µM
Cc1nc(Nc2ncc(C(=O)Nc3c(C)cccc3Cl)s2)cc(N2CCN(CCO)CC2)n1 [Dasatinib] | – | Inactive | 52 ± 11 | 0.03 ± 0.02 | 46 ± 3 | – | 56 | 21.1 | Inactive | Emax [3, 14]: 82%; IC50 [3, 15]: 0.94 µM; Emax [3, 16]: 46 ± 3%; IC50 [3, 17]: 23.6 ± 8.59 µM
CCOC(=O)C1(c2ccccc2)CCN(CCC(C#N)(c2ccccc2)c2ccccc2)CC1 [Diphenoxylate] | – | Inactive | 60 ± 4 | 7.8 ± 0.53 | – | – | – | – | Inactive | Emax [3, 7]: 104 ± 12%; IC50 [3, 8]: 13.7 ± 0.93 µM; Emax [3, 9]: 82%; IC50 ([3]; Homo sapiens, read-out: HIF-1α–NanoLuc primary IC50): 16.8 µM
C#Cc1cccc(Nc2ncnc3cc(OCCOC)c(OCCOC)cc23)c1 [Erlotinib] | – | Inactive | 59 ± 15 | 7.95 ± 3.47 | 35 ± 6 | – | 33 | – | Inactive | IC50 [3, 18]: 2.66 µM; Emax [3, 19]: 33%; Emax [3, 14]: 33%; Emax [3, 16]: 35 ± 6%; IC50 [3, 17]: 6.64 ± 2.42 µM
CCOc1ccc(Cc2nccc3cc(OCC)c(OCC)cc23)cc1OCC [Ethaverine] | – | Inactive | – | – | 96 ± 2 | 9.39 ± 1.08 | 67 | 6.68 | Inactive | HRE–bla confirmatory IC50 [4]: Inactive
c1ccc(CCNc2nc(-c3ccccc3)cs2)cc1 [Fanetizole] | – | Inactive | – | – | 28 ± 5 | 16.4 ± 3.97 | 123 | 26.6 | Inactive | HRE–bla confirmatory IC50 [4]: Inactive
COc1cc2ncnc(Nc3ccc(F)c(Cl)c3)c2cc1OCCCN1CCOCC1 [Gefitinib] | – | Inactive | 45 ± 14 | – | 31 ± 3 | – | 86 | – | Inactive | Emax [3, 19]: 86%
CS(=O)(=O)CCNCc1ccc(-c2ccc3ncnc(Nc4ccc(OCc5cccc(F)c5)c(Cl)c4)c3c2)o1 [Lapatinib] | 20.4 ± 1.33 | Inactive | 78 ± 6 | 11.4 ± 0.75 | 50 ± 6 | – | 56 | 33.5 | – | Emax [3, 16]: 50 ± 6%; IC50 [3, 17]: 20.2 ± 1.31 µM
CCCCCCCCCCCCCC[N+](C)(C)C.[Br-] [MitMAB] | – | Inactive | – | – | – | – | – | – | – | IC50 [1]: 18.2 ± 2.51 µM; HIF-1α–NanoLuc confirmatory Efficacy ([3]; Table S7, confirmatory screen): 99 ± 9%; IC50 ([3]; Table S7, confirmatory screen, read-out: HIF-1α–NanoLuc confirmatory IC50): 15.2 ± 7.16 µM; HIF-1α–NanoLuc primary Efficacy ([3]; Table S7, primary screen): 129%; IC50 ([3]; Table S7, primary screen, read-out: HIF-1α–NanoLuc primary IC50): 2.11 µM; HRE–bla confirmatory Efficacy [4]: 100 ± 5%; IC50 [4]: 5.73 ± 1.88 µM
CC(=O)Oc1ccccc1C(=O)Nc1ncc([N+](=O)[O-])s1 [Nitazoxanide] | 3 ± 0.34 | – | 88 ± 1 | 3 ± 0.34 | 101 ± 14 | 17.3 ± 1.17 | 150 | 9.44 | – | IC50 [2]: 9.39 ± 1.08 µM
CC(=O)Oc1ccc(C2(c3ccc(OC(C)=O)cc3)C(=O)Nc3ccccc32)cc1 [Oxyphenisatin acetate] | 0.2 ± 0.01 | Inactive | 92 ± 3 | 0.19 ± 0.01 | 55 ± 9 | 2.47 ± 0.79 | 84 | 1.33 | – | –
CNC(=O)c1cc(Oc2ccc(NC(=O)Nc3ccc(Cl)c(C(F)(F)F)c3)cc2)ccn1 [Sorafenib] | – | Inactive | 98 ± 7 | 17.6 ± 8.6 | 100 ± 6 | – | 156 | – | Inactive | IC50 [3, 18]: 13.3 µM; Emax [3, 19]: 156%; Emax [3, 14]: 46%; IC50 [3, 15]: 1.5 µM; Emax [3, 16]: 100 ± 6%; IC50 [3, 17]: 23.6 ± 2.71 µM
CO[C@H]1C[C@@H]2CC[C@@H](C)[C@@](O)(O2)C(=O)C(=O)N2CCCC[C@H]2C(=O)O[C@H]([C@H](C)C[C@@H]2CC[C@@H](OC(=O)C(C)(CO)CO)[C@H](OC)C2)CC(=O)[C@H](C)/C=C(\C)[C@@H](O)[C@@H](OC)C(=O)[C@H](C)C[C@H](C)/C=C/C=C/C=C/1C [Temsirolimus] | 27.7 ± 1.87 | Inactive | 86 ± 7 | 15.9 ± 6.91 | 92 ± 8 | 34.5 ± 2.34 | – | – | – | Emax ([1]; Homo sapiens, ME-180): 116 ± 11%
CC(/C=C/C(=O)NO)=C\[C@@H](C)C(=O)c1ccc(N(C)C)cc1 [Trichostatin A] | – | Inactive | – | – | – | – | – | – | – | IC50 [1]: 9.68 ± 3.79 µM; Emax [1]: 43 ± 13%; Pathway inhibitors (validation) HIF-1α–NanoLuc Activity Efficacy ([3]; Table S2, validation): 55 ± 4%; IC50 ([3]; Table S2, validation, read-out: Pathway inhibitors (validation) HIF-1α–NanoLuc Activity IC50): 0.67 ± 0.26 µM; HIF-1α–NanoLuc confirmatory Efficacy ([3]; Table S7, confirmatory screen): 55 ± 4%; HRE–bla confirmatory Efficacy [4]: 92 ± 11%; IC50 [4]: 12.2 ± 3.9 µM
